Laboratory results as given in patent publication US20050106258A1, “Pharmacology and manufacturing method of Bombyx moriL related bioproduct” (priority 2003, published 2005).
Counter-ions that a name gives are not always drawn.

Columns and labels:
[1] = test system: cGMP; assay: cGMP content in rat plasma (125I-cGMP RIA); type: in vivo, rats; conditions: 1.5 hours after administration, P < 0.001 vs control (2.59 ± 0.48)
Procedure: (§1) According to the aim of the experiment, IRA was performed to estimate cGMP content in plasma and cavernous boby of 50 male rats which were administrated by 2 dosages of […] product mainly consisting of bombyx moriL in our ladoratory. Change caused by […] product mainly consisting of bombyx moriL at 1.5 hours after administration was wholly observed. I. Rats: 50 healthy rats were randomly divided into 5 groups, every group is 10 rats 1. Product Mainly Consisting of Bombyx moriL Group: there were two dosage group 200 mg/kg, 400 mg/kg. 2. Viagra Group: two group, 6 mg/kg, 12 mg/kg. 3. Control Group: NS, 0.4 ML/rat. Medicine Dispensing: Viagra and Product Mainly Consisting of Bombyx moriL was dissolved by certain mount of NS. Administration Method: All Group was e.g. for One Time. Anticoagulant 50 u l EDTA was added into blood test tube.lml blood was taken in rat's veniplex orbita posterior. Test tubes was stood in ice-water mixture and were centrifugated 200 rpm for 10 minutes. […] Our laboratory used 125I-cGMP-RIA kit by Isotope Laboratory, detecting Method was double antiboby radioimmune method. The experiment sensitivity is 0.008 pmol/ml, most combination rate of detection is 82.7%,non […] combination rate is 5.0%.

[2] = test system: normal males; assay: Blood pressure of normal males; type: in vivo; conditions: for Systolic Pressure, change 1 h after administration, X ± SD: P < 0.01
From the text: (§2) Subjects: 46 normal males, age 23-29, provided.
(§3) Methods: Double-blind, auto-control and mutual control design. The influence of the two medicines on arterial blood flow rate of cavernosum was contrasted, Based on ages, the objects were randonmly divided into 4 groups, and there were 11-12 people in one group. Before administration, arterial blood flow of corpus cavernosum penis was estimated respectively by Doppler color ultrasound instrument (Acuson, American, 128×p/10 c),and blood pressure was also measured. Then 2 groups were respectively given high dosage Medicine, that is, 8 capsules product mainly consisting of bombyx moriL and 8 capsules of viagra, and the dose-effect relationship was observed. Blood pressure and cavernous arterial blood flow of every group were estimated respectively at I and 2 hours after administration, and the time-effect relationship of product mainly consisting of bombyx moriL and viagra was observed. Whether the alternation before and after administration and the difference between groups were significant was convinced here.

[3] = test system: 5′ Nucleotide Phosphodiesterase isoenzyme (isoenzyme V) in corpus cavernosum tissue; assay: 5′ Nucleotide Phosphodiesterase isoenzyme bands in rat corpus cavernosum tissue after oral dosing (polyacrylamide gel electrophoresis, laser scanning); type: in vivo, rats; conditions: P < 0.05 vs blank comparison (0.495 ± 0.328)
Procedure: Take 50 healthy male rats with body weight of 230±10.4 g, divide them into five groups at random, with 10 rats each group.
(1) The product mainly consisting of bombyx moriL test drug group: 200mg/kg and 400mg/kg two dose groups
(2) The positive comparison drug viagra group: 6 mg/kg and 12 mg/kg two dose groups
(3) The blank comparison group: normal saline 0.4 ml/per animal
Preparation of drug: After product mainly consisting of bombyx moriL and viagra are dissolved with quanitative normal saline, then use them.
Drug feeding way: Feed medicine to all groups of animal once.
Take corpus cavernosum 10 mg, put into the tissue lapping homogenate container, add 0.05M PH7.4 phosphoric acid buffering agent liquid of 0.2 ml homogenate into the ice bath, and lastly add to 10 ml to prepare homogenate liquid with concentration of 1 mg/n ml. Centrifuge by 20 min. at temperature 4° C., 3000 r/min, then take the supernatant liquid for use.
(1) Take 5′ Nucleotide Phosphodiesterase in the amount enough to dissolve phosphoric acid dieter bond by water, under the effecting of the bottom substance of 5′-[5-iodine indoxyl-(3)] thymidine acid ammonium salt, get iodine sub-indoxyl, it can be oxidized in air and generating violet 5.5′,by using -diuodoindigo principle to examine enzyme activity. […]

[4] = test system: cGMP; assay: cGMP content in rat cavernous body (125I-cGMP RIA); type: in vivo, rats; conditions: 1.5 hours after administration
Procedure: as §1, with “Time.” for “Time. Anticoagulant 50 u l EDTA was added into blood test tube.lml blood was taken in rat's veniplex orbita posterior. Test tubes was stood in ice-water mixture and were centrifugated 200 rpm for 10 minutes.”

[5] = test system: nitric oxide (NO); assay: Nitric oxide contents in the corpora cavernosa of penis in male rats (nitrate reductase method); type: in vivo
From the text: It has been approved in literatures that nitric oxide (NO) is formed in the endothelial cells in blood vessels and NO plays as an important signal transmitter in many physical activities of the human body. Nitric Oxide exists in many organs and tissues such as brain, blood vessels, liver, lung, pancreas, immune and reproductive systems. On the basis of No on wide-ranging regulative activities in the human physiological process, the Nitric Oxide contents, in the Sera and the Corpora Cavernosa of Penis in 50 normal male rats, were measured by nitrate reductase method for two dosages of product mainly consisting of bombyx moriL and Sildenafil Citrate(Viagra).On a half and one hour after the drug administrations, the variations of NO content were compared with the two drugs treated animals as a whole situation. The results are: (1) In the rat serum of the tested drug groups, there are distinct NO content differences with statistical […] compared the No contents of the low dosage groups of the two drugs with the control group's, and there are very distinct NO content differences with statistical significance (p<0.001) in the high dosage groups of the two drugs. […]

[6] = test system: normal males; assay: Arterial blood flow rate of corpus cavernosum penis of normal males (Doppler color ultrasound); type: in vivo; conditions: for MAX blood flow rate, change 1 h after administration, X ± SD: P < 0.001; for increasement of MAX (cavernous arterial maximal blood flow rate): 1 hour after administration vs before
From the text: AIM: The physiological mechanism of penile erection expresses that NO is excreted in the cavernosum during sexual extraction, whose direct function is to activate GC, which catalyzes GPT to cGMP, so the smooth muscle of cavernosum is relax, and the inflowed blood volume is increased, then penis is erected. In this experiment, Doppler color-ultrasound instrument was used to observe the influence of product mainly consisting of bombyx moriL and viagra on the arterial blood flow rate of corpus cavernosum penis of normal males, to estimate the alternation of inflowed blood volume of cavernosum.
Tested Medicie: No.981005, light-blue capsule, 200 mg/capsule.
Sildenafilcitrate, viagra: light-blue rhombic table, 100 mg/tablet. The tablet was triturated to fine powder, and amylum was added. After adequate mixture, the powder was filled into 200 mg capsule. (The same specification as product mainly consisting of bombyx moriL).There was 50 mg sildenafilcitrate in every 8 capsules.
as §2, §3

[7] = Viagra 25 mg, n=11, before administration 81.8 ± 6.4
[8] = Viagra 25 mg, n=11, before administration 120.5 ± 10.6
[9] = Viagra 50 mg, n=12, before administration 78.6 ± 10.7
[10] = Viagra 50 mg, n=12, before administration 117.7 ± 9.8
[11] = Viagra 25 mg, n=11, before administration 1.09 ± 0.30
[12] = Viagra 25 mg, n=11, before administration 3.24 ± 1.02
[13] = Viagra 50 mg, n=12, before administration 1.25 ± 0.62
[14] = Viagra 50 mg, n=12, before administration 3.37 ± 0.79

Structure (SMILES): CCCc1nn(C)c2c(=O)[nH]c(-c3cc(S(=O)(=O)N4CCN(C)CC4)ccc3OCC)nc12 [Viagra, Sildenafil citrate]
- cGMP content in plasma, X ± SD ([1]; Viagra 6 mg/kg): 4.53 ± 0.67 pmol/mL
- cGMP content in plasma, X ± SD ([1]; Viagra 12 mg/kg): 4.42 ± 0.97 pmol/mL
- rate of hypotensive function ([2]; "High dosage" as printed, remarkable only at 1 hour after administration): 8.3%
- Diastolic Pressure, change 1 h after administration, X ± SD [2, 7]: −2.7 ± 4.7 mmHg
- Diastolic Pressure, change 2 h after administration, X ± SD [2, 7]: −1.8 ± 4.6 mmHg
- Systolic Pressure, change 2 h after administration, X ± SD [2, 8]: −3.5 ± 6.2 mmHg
- Systolic Pressure, change 1 h after administration, X ± SD [2, 8]: −10.0 ± 6.3 mmHg
- Diastolic Pressure, change 1 h after administration, X ± SD [2, 9]: −3.4 ± 7.2 mmHg
- Diastolic Pressure, change 2 h after administration, X ± SD [2, 9]: −2.0 ± 6.4 mmHg
- Systolic Pressure, change 2 h after administration, X ± SD [2, 10]: −2.7 ± 5.6 mmHg
- Systolic Pressure, change 1 h after administration, X ± SD [2, 10]: −7.3 ± 6.1 mmHg
- decreasing rate of systolic pressure (sp) ([2]; high dosage, 1 h after administration, p<0.01): 6.2%
- isoenzyme band II area under peak, Peak Area X ± SD ([3]; Viagra 6 mg/kg): 0.249 ± 0.126
- isoenzyme band II area under peak, Peak Area X ± SD ([3]; Viagra 12 mg/kg): 0.198 ± 0.092
- cGMP content in cavernous body, X ± SD ([4]; Viagra 6 mg/kg, P < 0.1 vs control (0.25 ± 0.05)): 0.40 ± 0.26 pmol/mL
- cGMP content in cavernous body, X ± SD ([4]; Viagra 12 mg/kg, P < 0.001 vs control (0.25 ± 0.05)): 0.53 ± 0.12 pmol/mL
- NO contents X ± SD, corpora cavernosa ([5]; Viagra high 12 mg/kg, P < 0.05 vs negative control (29.2 ± 5.37)): 48.52 ± 17.95 µmol/L
- NO contents X ± SD, corpora cavernosa ([5]; Viagra low 6 mg/kg, P < 0.01 vs negative control (29.2 ± 5.37)): 44.88 ± 9.47 µmol/L
- MIN blood flow rate, change 1 h after administration, X ± SD [6, 11]: +0.27 ± 1.01 cm/s
- MIN blood flow rate, change 2 h after administration, X ± SD [6, 11]: +0.36 ± 0.81 cm/s
- TAMX blood flow rate, change 2 h after administration, X ± SD ([6]; Viagra 25 mg, n=11, before administration 2.64 ± 1.12): 0.18 ± 1.17 cm/s
- TAMX blood flow rate, change 1 h after administration, X ± SD ([6]; Viagra 25 mg, n=11, before administration 2.64 ± 1.12, P < 0.05): +1.36 ± 1.43 cm/s
- PI (pulsation index), change 1 h after administration, X ± SD [6, 12]: −0.19 ± 1.16
- PI (pulsation index), change 2 h after administration, X ± SD [6, 12]: +0.10 ± 0.85
- MAX blood flow rate, change 1 h after administration, X ± SD ([6]; Viagra 25 mg, n=11, before administration 9.55 ± 2.58): +4.36 ± 2.98 cm/s
- MIN blood flow rate, change 1 h after administration, X ± SD [6, 13]: +0.17 ± 0.72 cm/s
- MIN blood flow rate, change 2 h after administration, X ± SD [6, 13]: +0.17 ± 0.91 cm/s
- TAMX blood flow rate, change 2 h after administration, X ± SD ([6]; Viagra 50 mg, n=12, before administration 2.67 ± 0.78): 0.50 ± 0.80 cm/s
- TAMX blood flow rate, change 1 h after administration, X ± SD ([6]; Viagra 50 mg, n=12, before administration 2.67 ± 0.78, P < 0.01): +1.43 ± 1.27 cm/s
- PI (pulsation index), change 1 h after administration, X ± SD [6, 14]: +0.24 ± 0.84
- PI (pulsation index), change 2 h after administration, X ± SD [6, 14]: −0.33 ± 0.72
- MAX blood flow rate, change 1 h after administration, X ± SD ([6]; Viagra 50 mg, n=12, before administration 9.58 ± 1.08): +5.67 ± 4.31 cm/s
- MAX blood flow rate, change 2 h after administration, X ± SD ([6]; Viagra 50 mg, n=12, before administration 9.58 ± 1.08, P < 0.05): +1.75 ± 2.63 cm/s
- increasement of MAX (cavernous arterial maximal blood flow rate) ([6]; high dosage groups): 59.2%
- increasing rate of TAMX (cavernous average blood flow rate) ([6]; low and high dosage groups, 1 hour after administration, P<0.01): 51.5-53.6%
- increasement of MAX (cavernous arterial maximal blood flow rate) ([6]; low dosage groups): 46.6%
